ChEMBL document CHEMBL4043239, “Discovery and optimization of oxadiazole-based FLAP inhibitors” (Bioorg Med Chem Lett, 2017)
In brackets after ≈: the same amount, converted by molar mass.

Key:
[1] = molecular target: T1, Arachidonate 5-lipoxygenase-activating protein (Homo sapiens, UniProt P20292); experiment: Inhibition of FLAP in calcimycin-stimulated human whole blood assessed as reduction in LTB4 production pretreated for 15 mins followed by calcimycin addition after 30 mins by ELISA
T1 sequence (P20292 whole entry): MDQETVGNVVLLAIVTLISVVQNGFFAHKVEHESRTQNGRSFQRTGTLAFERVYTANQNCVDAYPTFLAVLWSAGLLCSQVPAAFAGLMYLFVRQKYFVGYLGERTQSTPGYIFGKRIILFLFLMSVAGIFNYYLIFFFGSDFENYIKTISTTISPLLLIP

hERG (KCNH2) [2] = molecular target: T2, hERG (KCNH2) (Homo sapiens, UniProt Q12809); experiment: Inhibition of human ERG expressed in CHO cells at 11 uM at -70mV holding potential measured after 300 secs by IonWorks electrophysiology method relative to control; type: cell-based; conditions: CHO cells expressing human ERG
[3] = Aqueous kinetic solubility of the compound at pH 7.4; type: physicochemical; conditions: for solubility kinetic: aqueous, read-out: Kinetic_solubility; for Kinetic_solubility: buffer
[4] = Stability in human liver microsomes at 1 uM pretreated for 10 mins followed by NADPH addition after 60 mins by LC/MS analysis relative to hepatic blood flow; type: ADME, microsome; conditions: read-out: Stability
[5] = molecular target: T1, Arachidonate 5-lipoxygenase-activating protein; experiment: Displacement of [125I]-L-691831 from human FLAP expressed in Sf9 cell membranes after 2 hrs by Topcount method
hERG (KCNH2) [6] = molecular target: T2, hERG (KCNH2); experiment: Inhibition of human ERG expressed in CHO cells at 14 uM at -70mV holding potential measured after 300 secs by IonWorks electrophysiology method relative to control; type: cell-based; conditions: CHO cells expressing human ERG
[7] = Aqueous equilibrium solubility in citric acid/disodium phosphate buffer at pH 6.8 at 1 uM after 24 hrs by HPLC method; type: physicochemical; conditions: for solubility: buffer, pH 6.8, 24 h, 1 µM; for solubility thermodynamic at 24 h, 1 µM: citric acid/disodium phosphate buffer, pH 6.8
hERG (KCNH2) [8] = molecular target: T2, hERG (KCNH2); experiment: Inhibition of human ERG expressed in CHO cells at 30 uM at -70mV holding potential measured after 300 secs by IonWorks electrophysiology method relative to control; type: cell-based; conditions: CHO cells expressing human ERG
hERG (KCNH2) [9] = molecular target: T2, hERG (KCNH2); experiment: Inhibition of human ERG expressed in CHO cells at 9 uM at -70mV holding potential measured after 300 secs by IonWorks electrophysiology method relative to control; type: cell-based; conditions: CHO cells expressing human ERG
hERG (KCNH2) [10] = molecular target: T2, hERG (KCNH2); experiment: Inhibition of human ERG expressed in CHO cells at 16 uM at -70mV holding potential measured after 300 secs by IonWorks electrophysiology method relative to control; type: cell-based; conditions: CHO cells expressing human ERG
[11] = molecular target: T3, Arachidonate 5-lipoxygenase-activating protein (Homo sapiens) (UniProt P20292); experiment: Ratio of IC50 for FLAP in calcimycin-stimulated human whole blood to IC50 for displacement of [125I]-L-691831 from human FLAP expressed in Sf9 cell membranes
T3 sequence (whole entry): T1 sequence (P20292 whole entry)

hERG (KCNH2) [12] = molecular target: T2, hERG (KCNH2); experiment: Inhibition of human ERG expressed in CHO cells at 13 uM at -70mV holding potential measured after 300 secs by IonWorks electrophysiology method relative to control; type: cell-based; conditions: CHO cells expressing human ERG
hERG (KCNH2) [13] = molecular target: T2, hERG (KCNH2); experiment: Inhibition of human ERG expressed in CHO cells at 41 uM at -70mV holding potential measured after 300 secs by IonWorks electrophysiology method relative to control; type: cell-based; conditions: CHO cells expressing human ERG
hERG (KCNH2) [14] = molecular target: T2, hERG (KCNH2); experiment: Inhibition of human ERG expressed in HEK293 cells at 30 uM by whole-cell patch clamp method relative to control; type: cell-based; conditions: HEK293 cells expressing human ERG
[15] = Clearance in human hepatocytes at 1 uM measured after 1 hr by LC/MS analysis relative to hepatic blood flow; type: ADME, cell-based, Hepatocyte
hERG (KCNH2) [16] = molecular target: T2, hERG (KCNH2); experiment: Inhibition of human ERG expressed in CHO cells at 12 uM at -70mV holding potential measured after 300 secs by IonWorks electrophysiology method relative to control; type: cell-based; conditions: CHO cells expressing human ERG
hERG (KCNH2) [17] = molecular target: T2, hERG (KCNH2); experiment: Inhibition of human ERG expressed in CHO cells at 17 uM at -70mV holding potential measured after 300 secs by IonWorks electrophysiology method relative to control; type: cell-based; conditions: CHO cells expressing human ERG
hERG (KCNH2) [18] = molecular target: T2, hERG (KCNH2); experiment: Inhibition of human ERG expressed in CHO cells at 33 uM at -70mV holding potential measured after 300 secs by IonWorks electrophysiology method relative to control; type: cell-based; conditions: CHO cells expressing human ERG
hERG (KCNH2) [19] = molecular target: T2, hERG (KCNH2); experiment: Inhibition of human ERG expressed in CHO cells at 21 uM at -70mV holding potential measured after 300 secs by IonWorks electrophysiology method relative to control; type: cell-based; conditions: CHO cells expressing human ERG

T2 sequence (Q12809 whole entry): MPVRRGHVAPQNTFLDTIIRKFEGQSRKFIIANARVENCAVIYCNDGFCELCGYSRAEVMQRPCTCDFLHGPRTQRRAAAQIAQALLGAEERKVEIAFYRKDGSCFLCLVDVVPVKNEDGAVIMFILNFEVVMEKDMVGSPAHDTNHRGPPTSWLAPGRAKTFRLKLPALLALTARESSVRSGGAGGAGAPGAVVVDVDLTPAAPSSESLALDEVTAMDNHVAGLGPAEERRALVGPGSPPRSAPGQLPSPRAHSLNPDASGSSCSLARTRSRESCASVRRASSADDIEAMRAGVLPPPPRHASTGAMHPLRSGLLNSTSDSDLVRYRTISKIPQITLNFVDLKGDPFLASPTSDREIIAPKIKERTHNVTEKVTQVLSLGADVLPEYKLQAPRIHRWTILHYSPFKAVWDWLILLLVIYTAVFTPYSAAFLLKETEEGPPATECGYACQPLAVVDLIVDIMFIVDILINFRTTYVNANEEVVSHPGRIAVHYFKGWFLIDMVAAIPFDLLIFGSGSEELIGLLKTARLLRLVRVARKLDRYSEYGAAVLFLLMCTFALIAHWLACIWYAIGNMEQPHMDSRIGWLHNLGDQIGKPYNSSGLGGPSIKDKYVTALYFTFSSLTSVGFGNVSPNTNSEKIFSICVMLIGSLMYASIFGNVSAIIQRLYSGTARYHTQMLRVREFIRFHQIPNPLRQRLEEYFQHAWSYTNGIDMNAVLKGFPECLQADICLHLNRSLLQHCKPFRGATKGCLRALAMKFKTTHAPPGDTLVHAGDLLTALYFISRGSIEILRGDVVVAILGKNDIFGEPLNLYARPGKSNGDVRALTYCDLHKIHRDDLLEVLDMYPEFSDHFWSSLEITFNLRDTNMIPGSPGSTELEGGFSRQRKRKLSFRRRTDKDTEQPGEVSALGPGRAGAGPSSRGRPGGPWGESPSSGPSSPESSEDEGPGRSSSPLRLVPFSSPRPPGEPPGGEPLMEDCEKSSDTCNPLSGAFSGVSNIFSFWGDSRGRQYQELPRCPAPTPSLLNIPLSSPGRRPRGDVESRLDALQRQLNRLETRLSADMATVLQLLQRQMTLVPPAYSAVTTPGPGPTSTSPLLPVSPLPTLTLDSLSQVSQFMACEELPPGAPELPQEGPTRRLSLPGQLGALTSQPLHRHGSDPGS

SMILES	IC50 [1] [nM]	solubility kinetic [3] [µg/mL]	hepatic extraction ratio at 1 h, 1 µM [4]	IC50 [5] [nM]	other results
CC(C)(O)CN1CCN(c2nc([C@@](C)(c3ccc(-c4cnc(N)nc4)cc3)C3CC3)no2)CC1	99	–	0.36	53	Kinetic_solubility [3]: Soluble; inhibition at 5 min, 14 µM (hERG (KCNH2) [6]): 26%; solubility [7]: Soluble
Nc1ncc(-c2ccc(C3(c4noc(N5CCC(O)CC5)n4)CCC3)cn2)cn1	595	–	–	–	inhibition at 5 min, 30 µM (hERG (KCNH2) [8]): 51%
CN(c1cnn(C)c1)c1nc([C@@](C)(c2ccc(-c3cnc(N)nc3)cc2)C2CC2)no1	92	–	0.34	29	Kinetic_solubility [3]: Soluble; inhibition at 5 min, 9 µM (hERG (KCNH2) [9]): 45%; solubility [7]: Soluble
CC1(O)CCN(c2nc(C3(c4ccc(-c5cnc(N)nc5)cc4)CCC3)no2)CC1	87	> 40	0.29	17	inhibition at 5 min, 16 µM (hERG (KCNH2) [10]): 45%
Nc1ncc(-c2ccc(C3(c4noc(N5CCNCC5)n4)CCC3)cc2)cn1	680	> 37	0.35	324	Ratio IC50 [11]: 2
Nc1ncc(-c2ccc(C3(c4noc(N5CC[C@H](O)C5)n4)CCC3)cc2)cn1	202	> 37	< 0.24	–	Ratio IC50 [11]: 6
Nc1ncc(-c2ccc(C3(c4noc(N5CCC(CO)CC5)n4)CCC3)cc2)cn1	173	14 (≈ 34.4 µM)	0.36	46	inhibition at 5 min, 13 µM (hERG (KCNH2) [12]): 68%
Cn1cc(-c2nc(C3(c4ccc(-c5cnc(N)nc5)cc4)CCC3)no2)cn1	–	14 (≈ 37.5 µM)	–	–	inhibition at 5 min, 11 µM (hERG (KCNH2) [2]): 25%
CN(C)C(=O)N1CCN(c2nc([C@@](C)(c3ccc(-c4cnc(N)nc4)cc3)C3CC3)no2)CC1	58	–	0.52	12	Kinetic_solubility [3]: Soluble; inhibition at 5 min, 30 µM (hERG (KCNH2) [8]): 36%; solubility [7]: Soluble
Nc1ncc(-c2ccc(C3(c4noc(-c5cnn(C6COC6)c5)n4)CCC3)cc2)cn1	–	> 41	–	–	inhibition at 5 min, 11 µM (hERG (KCNH2) [2]): 43%
CC(C)OC1CCN(c2nc(C3(c4ccc(-c5cnc(N)nc5)cc4)CCC3)no2)CC1	174	16 (≈ 36.8 µM)	0.37	48	inhibition at 5 min, 14 µM (hERG (KCNH2) [6]): 85%
C[C@@](c1ccc(-c2cnc(N)nc2)nc1)(c1noc(N2CCC(O)CC2)n1)C1CC1	324	–	–	434	inhibition at 5 min, 41 µM (hERG (KCNH2) [13]): 17%
CC(C)[C@](C)(c1ccc(-c2cnc(N)nc2)nc1)c1noc(-c2cnn(C3COC3)c2)n1	37	–	< 0.3	6.6	Kinetic_solubility [3]: Soluble; solubility thermodynamic at 24 h, 1 µM [7]: 84 µg/mL (≈ 194 µM); inhibition at 30 µM (hERG (KCNH2) [14]): 24%; hepatic extraction ratio at 1 h, 1 µM [15]: 0.34
Nc1ncc(-c2ccc(C3(c4noc(N5CCN(CC6CCCO6)CC5)n4)CCC3)cc2)cn1 (stereo not drawn)	182	26 (≈ 56.3 µM)	0.49	92	Ratio IC50 [11]: 2
CC1(O)CCN(c2nc([C@@](C)(c3ccc(-c4cnc(N)nc4)nc3)C3CC3)no2)CC1	115	–	–	97	inhibition at 5 min, 30 µM (hERG (KCNH2) [8]): 17%
CC1(O)CN(c2nc([C@@](C)(c3ccc(-c4cnc(N)nc4)cc3)C3CC3)no2)C1	72	–	< 0.24	16	inhibition at 5 min, 11 µM (hERG (KCNH2) [2]): 13%; Kinetic_solubility [3]: Soluble; solubility [7]: Soluble
Nc1ncc(-c2ccc(C3(c4noc(N5CCC(O)CC5)n4)CCC3)cc2)cn1	118	> 39	< 0.24	–	inhibition at 5 min, 17 µM (hERG (KCNH2) [17]): 40%; Ratio IC50 [11]: 7
Nc1ncc(-c2ccc(C3(c4noc(N5CCCCC5)n4)CCC3)cc2)cn1	387	4.1 (≈ 10.9 µM)	–	–	inhibition at 5 min, 33 µM (hERG (KCNH2) [18]): 92%; Ratio IC50 [11]: 59

Further compounds by falling IC50 [1], results first:

IC50 [1] [nM]	solubility kinetic [3] [µg/mL]	hepatic extraction ratio at 1 h, 1 µM [4]	IC50 [5] [nM]	SMILES	other results
467	16 (≈ 44.1 µM)	–	–	Nc1ncc(-c2ccc(C3(c4noc(N5CCCC5)n4)CCC3)cc2)cn1	Ratio IC50 [11]: 56
315	> 36	< 0.24	160	Nc1ncc(-c2ccc(C3(c4noc(N5CC(O)C5)n4)CCC3)cc2)cn1	inhibition at 5 min, 12 µM (hERG (KCNH2) [16]): 18%; Ratio IC50 [11]: 2
270	24 (≈ 64.1 µM)	0.19	–	Cn1cc(-c2nc(C3(c4ccc(-c5cnc(N)nc5)nc4)CCC3)no2)cn1	inhibition at 5 min, 11 µM (hERG (KCNH2) [2]): 11%
197	–	< 0.3	54	CC(C)[C@](C)(c1ccc(-c2cnc(N)nc2)nc1)c1noc(-c2cnn(CC(=O)N(C)C)c2)n1	Kinetic_solubility [3]: Soluble; solubility [7]: Soluble
124	> 43	< 0.24	–	CC(C)(O)Cn1cc(-c2nc(C3(c4ccc(-c5cnc(N)nc5)nc4)CCC3)no2)cn1	inhibition at 5 min, 11 µM (hERG (KCNH2) [2]): < 10%; solubility thermodynamic at 24 h, 1 µM [7]: 45 µg/mL (≈ 104 µM); hepatic extraction ratio at 1 h, 1 µM [15]: 0.5
71	25 (≈ 60 µM)	< 0.24	–	Nc1ncc(-c2ccc(C3(c4noc(-c5cnn(C6COC6)c5)n4)CCC3)cn2)cn1	inhibition at 5 min, 11 µM (hERG (KCNH2) [2]): < 10%
48	–	0.67	2.9	CN(C)C(=O)Cn1cc(-c2nc([C@@](C)(c3ccc(-c4cnc(N)nc4)nc3)C3CC3)no2)cn1	Kinetic_solubility [3]: Soluble; solubility [7]: Soluble
19	–	0.57	8.1	C[C@@](c1ccc(-c2cnc(N)nc2)nc1)(c1noc(-c2cnn(CC#N)c2)n1)C1CC1	Kinetic_solubility [3]: Soluble; solubility [7]: Soluble
13	–	0.58	5.6	CC1(O)CCN(c2nc([C@@](C)(c3ccc(-c4cnc(N)nc4)cc3)C3CC3)no2)CC1	inhibition at 5 min, 21 µM (hERG (KCNH2) [19]): 31%
